Source: publication PMC8152265, “Seconeolitsine, the Novel Inhibitor of DNA Topoisomerase I, Protects against Invasive Pneumococcal Disease Caused by Fluoroquinolone-Resistant Strains” (Antibiotics, 2021)
In brackets after ≈: the same amount, converted by molar mass. Read-outs that look alike come from different tables or passages of the source. One block for each compound: values may come before it.

Experiments:
[1] = system: S. pneumoniae isolate CipR45 (serotype 8); test: MIC by broth microdilution, isolate CipR45; format: cell-based, Streptococcus pneumoniae; conditions: isolate CipR45, serotype 8, low-level FQ-resistant, AGCH medium, 18–24 h
Method: (§1) Bacteria were grown in Todd-Hewitt broth supplemented with 0.5% yeast extract (Difco) to an optical density at 580 nm (OD580) of 0.4 to 0.5 corresponding to ca. 10^8 CFU/mL. Single-use aliquots were stored at −80 °C in 10% glycerol to use in mice infections as previously described. Antimicrobial susceptibility was tested by broth microdilution, according to the Clinical and Laboratory Standards Institute guidelines. S. pneumoniae R6 was included as a quality control. Powders of known potency of LVX and MXF were purchased from Sigma. SCN was synthesized as previously described. Briefly, for MIC determination, pneumococcal strains were grown in a casein hydrolysate-based medium with 0.3% sucrose as an energy source (AGCH medium). A 96-well plate was used including broth containing different concentrations of antibiotics. Plates were inoculated with a standardized suspension of the pneumococcal strains followed by incubation at 37 °C with 5% CO2 for 18–24 h. The minimal inhibitory concentrations (MICs) were determined by observing the lowest concentration of the agent that inhibited visible growth of the bacterium.

[2] = system: S. pneumoniae isolate CipR5 (serotype 33F); test: MIC by broth microdilution, isolate CipR5; format: cell-based, Streptococcus pneumoniae; conditions: AGCH medium, 18–24 h
Method: as §1

[3] = system: S. pneumoniae isolate CipR72 (serotype 15A); test: MIC by broth microdilution, isolate CipR72; format: cell-based, Streptococcus pneumoniae; conditions: AGCH medium, 18–24 h
Method: as §1

[4] = system: S. pneumoniae isolate CipR15 (serotype 16F); test: MIC by broth microdilution, isolate CipR15; format: cell-based, Streptococcus pneumoniae; conditions: AGCH medium, 18–24 h
Method: as §1

[5] = system: S. pneumoniae isolate CipR57 (serotype 8); test: MIC by broth microdilution, isolate CipR57; format: cell-based, Streptococcus pneumoniae; conditions: isolate CipR57, serotype 8, high-level FQ-resistant, AGCH medium, 18–24 h
Method: as §1

[6] = system: S. pneumoniae isolate CipR45; test: Mouse sepsis model, survival after infection with CipR45; format: in vivo, Streptococcus pneumoniae; conditions: mice infected i.p. with CipR45
Method: (§2) BALB/c female mice (8–12 weeks old) weighing 20 g were purchased from Harlan Laboratories (Barcelona, Spain). […] Different concentrations of antibiotic (10, 20, and 40 mg/kg for SCN; 12.5, 25, and 50 mg/kg for LVX) were administered two times a day over 48 h by the subcutaneous route. The doses, interval, and schedule chosen were based in previous studies investigating the protective activity of FQs against pneumococcal sepsis in mice. Seconeolitsine stock solution was dissolved in dimethyl sulfoxide (DMSO) and the doses tested for protection in animals were prepared in PBS containing 1% DMSO. Animals in the lethal control groups were infected with S. pneumoniae and received the antibiotic solvent (PBS−1% DMSO) instead of SCN or LVX. The toxicity control for each antibiotic (no infection group) only received SCN or LVX. Animal experiments were performed in groups of at least 5 mice and were repeated twice.

[7] = system: S. pneumoniae isolate CipR57; test: Mouse sepsis model, survival after infection with CipR57; format: in vivo, Streptococcus pneumoniae; conditions: for survival within the first 48 h post-infection / survival at 36 h post-infection: mice infected i.p. with CipR57; for survival within the first 48 h post-infection: any concentration investigated (12.5 to 50 mg/kg s.c. every 12 h)
Method: as §2

[8] = Serum pharmacokinetics in non-infected mice after single subcutaneous dose; format: in vivo, BALB/c mice
Method: Groups of two mice for each antibiotic and time-point were treated with a single subcutaneous dose of 40 mg/kg of SCN or 50 mg/kg of LVX. Blood samples were collected at 15 and 30 min and 1, 2, 4, 6, 8, 10, 12, 14, 18, and 24 h, centrifuged for 10 minutes at 2000 rpm, and the sera from the different mice were stored at −80 °C until drug assay determination.
Seconeolitsine concentrations were measured by high-pressure liquid chromatography analysis (HPLC). Chromatographic separation was performed using SunFire C18 column (150 × 4.6 mm; Waters Corporation, MA, USA) with trifluoroacetic acid and acetonitrile in the ratio 70:30 (vol./vol.) as the mobile phase. The solvent flow rate was 1.0 mL/min with a runtime of 20 minutes. The mobile phase was filtered through 0.45 µm prior to use. Standards ranging from 0−1.000 µg/mL were prepared in HPLC grade methanol. Sample dilutions, prepared in mouse serum, were injected into the column at a constant volume of 20 µl and were tested in duplicate. The detection wavelength was 270 by UV absorbance using a Waters UV–Visible 2489 module (Waters Corporation). The column was maintained at room temperature.
Plates containing a lawn of microorganism were incubated for 18–24 h at 37 °C. Standards and dilutions were prepared in mouse serum in a range from 0.03–8 µg/ mL.
Pharmacokinetic (PK) parameters measured included peak level (Cmax), time peak level (Tmax), area under the concentration time-curve from 0 to last (Clast) measured concentration (AUClast), and elimination half-life (t1/2). These parameters were estimated for both the total concentrations and the free fraction concentrations and were determined by using protein binding values, by a non-compartmental approach with the Phoenix WinNonlin program (version 6.2, Certara, NJ, USA). […] T>MIC for total and unbound concentrations (fT>MIC) were determined by a non-compartmental approach for PD data (Phoenix WinNonlin, model 220).

[9] = system: S. pneumoniae isolate CipR57; test: Bacterial counts in blood of mice infected with CipR57; format: in vivo, Streptococcus pneumoniae; conditions: for effect on bacterial load in blood compared to the untreated group: 24 and 48 h post-infection, LVX 25 and 50 mg/kg, SCN different doses; for bacterial levels in blood at 24 h: 24 h post-infection; for bacteria in blood at 48 h: 48 h post-infection
Method: Bacteremic profiles (colony counts in blood) were determined from mice treated with SCN and LVX, at 24 h and 48 h post-infection, when the majority of mice were alive. To collect blood samples, volumes of 6 µl were obtained from the tail vein, as previously described, resuspended in PBS and plated onto blood agar plates at 37 °C in 5% CO2 for colony counts determination.

plasma proteins = test: Protein binding by ultrafiltration; format: in vitro ADME; conditions: murine plasma
Method: Binding to serum proteins was determined by the ultrafiltration method (36) using the Centrifree micropartition system (Amicon Bioseparations, Millipore, Tullagreen, Ireland) with concentrations in murine plasma of 1 and 50 μg/mL for SCN and 5 and 50 μg/mL for LVX. Pre-filtered samples and ultrafiltrates recovered were measured by HPLC or bioassay, as described above. Percentage of SCN or LVX bound to proteins in mouse serum was calculated using the expression: [antibiotic in pre−filtered samples] − [antibiotic in ultrafiltrated samples]/[antibiotic in pre-filtered samples] × 100 as previously described.

human cell = system: human cell; design: method as in PMID 21169356; conditions: cited from earlier work
S. pneumoniae Topo I = system: S. pneumoniae Topo I; design: method as in PMID 21169356; conditions: cited from earlier work
S. pneumoniae = system: S. pneumoniae; design: method as in PMID 21169356; conditions: cited from earlier work
Hydrosolubility = format: physicochemical; conditions: data not shown
[10] = Toxicity control, non-infected mice; format: in vivo, BALB/c mice; conditions: 40 mg/kg, largest concentration used; 7 days of follow-up
Method: as §2

[11] = Streptococcus pneumoniae, read-out: MIC
[12] = BALB/c, mouse, in vivo, sc, 50 mg/kg
[13] = mouse serum, single s.c. dose 40 mg/kg (seconeolitsine) or 50 mg/kg (levofloxacin)

Structure (SMILES): O=C(O)c1cn(C2CC2)c2cc(N3CCNCC3)c(F)cc2c1=O [CIP, ciprofloxacin]
MIC [1, 11]: 4 µg/mL (≈ 12.1 µM) | MIC [2, 11]: 16 µg/mL (≈ 48.3 µM) | MIC [3, 11]: 64 µg/mL (≈ 193 µM) | MIC [4, 11]: 32 µg/mL (≈ 96.6 µM) | MIC [5, 11]: 64 µg/mL (≈ 193 µM)

Structure (SMILES): C[C@H]1COc2c(N3CCN(C)CC3)c(F)cc3c(=O)c(C(=O)O)cn1c23 [Levofloxacin, levofloxacin]
MIC [1, 11]: 2 µg/mL (≈ 5.53 µM) | MIC [2, 11]: 8 µg/mL (≈ 22.1 µM) | survival at 36 h post-infection ([6]; 12.5 mg/kg s.c. every 12 h over 48 h): 40% | survival at 36 h post-infection ([6]; 25 mg/kg s.c. every 12 h over 48 h): 80% | survival at 36 h post-infection ([6]; 50 mg/kg s.c. every 12 h over 48 h): 100% | survival at 78 h post-treatment ([6]; 12.5 to 50 mg/kg s.c. every 12 h over 48 h): all mice succumbed to the infection | survival within the first 48 h post-infection [7]: all died within the first 48 h | survival within the first 48 h post-infection ([7]; listed as LVX): all the animals died within the first 48 h post-infection | Cmax [8, 12]: 14700 ± 700 ng/mL | Tmax [8, 12]: 15 min | half-life [8, 12]: 42 min | AUC(0-t) ([8]; BALB/c, mouse, in vivo, sc, 50 mg/kg, AUC0-12h): 17300 ± 1500 ng·h/mL | AUC(0-t) ([8]; BALB/c, mouse, in vivo, sc, 50 mg/kg, AUC0-24h): 34600 ± 2900 ng·h/mL | MIC [3, 11]: 32 µg/mL (≈ 88.6 µM) | effect on bacterial load in blood compared to the untreated group [9]: did not reduce bacterial levels in blood | bacterial levels in blood at 24 h [9]: around 10^8 CFU/mL | bacteria in blood at 48 h [9]: High levels of bacterial counts | MIC [4, 11]: 16 µg/mL (≈ 44.3 µM) | MIC [5, 11]: 16 µg/mL (≈ 44.3 µM) | binding to plasma proteins (plasma proteins; 5 µg/mL): 12% | binding to plasma proteins (plasma proteins; 50 µg/mL): 33%

MIC [1, 11]: 0.25 µg/mL (≈ 0.623 µM) | MIC [2, 11]: 2 µg/mL (≈ 4.98 µM) | MIC [3, 11]: 4 µg/mL (≈ 9.96 µM) | MIC [4, 11]: 4 µg/mL (≈ 9.96 µM) | MIC [5, 11]: 4 µg/mL (≈ 9.96 µM)
Structure (SMILES): COc1c(N2C[C@@H]3CCCN[C@@H]3C2)c(F)cc2c(=O)c(C(=O)O)cn(C3CC3)c12 [MXF, moxifloxacin]

Structure (SMILES): CN(C)CCc1cc2c(c3c1ccc1cc4c(cc13)OCO4)OCO2 [N-methyl-seconeolitsine]
effect on human cell viability (human cell): without affecting human cell viability | concentration inhibiting S. pneumoniae Topo I activity in vitro (S. pneumoniae Topo I): ~ 10 µM | concentration inhibiting cell growth (S. pneumoniae): ~ 10 µM

Structure (SMILES): CNCCc1cc2c(c3c1ccc1cc4c(cc13)OCO4)OCO2 [Seconeolitsine, seconeolitsine]
hydrosolubility (Hydrosolubility): poor hydrosolubility | effect on human cell viability (human cell): without affecting human cell viability | MIC [1]: 5.2 µg/mL (≈ 16.1 µM) | MIC [2]: 5.2 µg/mL (≈ 16.1 µM) | survival at 36 h post-infection ([7]; 20 mg/kg s.c. every 12 h over 48 h): 60% | survival at 36 h post-infection ([7]; 40 mg/kg s.c. every 12 h over 48 h): 70% | protection at 48 h ([7]; mice infected with a serotype 8-resistant strain, 40 mg/kg every 12 h during two days (abstract)): 70% | SCN-derived metabolites in murine plasma ([8]; by HPLC): not detected | AUC0-12h [8, 13]: 5000 ± 0 ng·h/mL | Cmax [8, 13]: 1600 ± 300 ng/mL | Cmin [8, 13]: 300 ± 40 ng/mL | Tlast [8, 13]: 9.0 ± 1.4 h | Tmax [8, 13]: 60 ± 0 min | t1/2 [8, 13]: 468 ± 144 min | AUC0-24h ([8]; mouse serum, single s.c. dose 40 mg/kg (seconeolitsine) or 50 mg/kg (levofloxacin), twice the AUC0-last): 10000 ± 100 ng·h/mL | MIC [3]: 5.2 µg/mL (≈ 16.1 µM) | harm to non-infected mice (survival, aspect, breathing, hair, eyes, appetite, movement, weight) [10]: not harmful | concentration inhibiting S. pneumoniae Topo I activity in vitro (S. pneumoniae Topo I): ~ 10 µM | effect on bacterial load in blood compared to the untreated group [9]: significantly reduced bacterial load | bacterial levels in blood at 24 h [9]: 10^4−10^5 CFU/mL | bacteria in blood at 48 h [9]: a significant proportion of mice treated with SCN were free of bacteria | concentration inhibiting cell growth (S. pneumoniae): ~ 10 µM | MIC [4]: 2.6 µg/mL (≈ 8.04 µM) | MIC [5]: 2.6 µg/mL (≈ 8.04 µM) | binding to plasma proteins (plasma proteins; 1 µg/mL): 40% | binding to plasma proteins (plasma proteins; 50 µg/mL): 80%
